What all share (test): NCI anticancer screen, dose series, 48 h
In test [1] the test system is HCC-2998 colon.
Test [2] deals with SN12C renal.
Test [3] deals with KM12 colon.
In test [4] the test system is U251 CNS.
Test [5] deals with IGROV1 ovarian.
Test [6] deals with SF-268 CNS.
For test [7], the system named is SK-MEL-28 melanoma.
The test system of test [8] is HCT-15 colon.
Test [9] relates to COLO 205 colon.
The subject of test [10] is HL-60(TB) leukemia.

23 compounds from PubChem BioAssay (NCI) can be followed below.

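All cell lines were grown in 96-well plates and treated with compound for 48 hours. GI50: concentration for 50% inhibition of growth. TGI marks complete inhibition of growth.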 Bounds are passed on as bounds.

As to `NS(=O)(=O)c1ccc(N2N=C3c4ccccc4CC3C2c2ccc(Cl)cc2)cc1` (configuration not stated), the GI50 is 10.3 µM in [1]; 6.75 µM in test [2]; 5.54 µM in test [3]; 20.2 µM in test [4]; 3.48 µM in test [5]; 22.1 µM in test [6]. In addition, the GI50 in [7] is 10 µM; in test [8], 18.2 µM; in test [9], 4.99 µM. Moreover, the TGI in test [1] came out at 27.7 µM; in test [2] it was 25.6 µM; in test [3], 49.8 µM; in test [4], 42.5 µM; in [5], 19.6 µM; in test [6], 54 µM. The values for the TGI in [7], in test [8] and in test [9] were 28.7 µM, 38.3 µM and more than 100 µM, respectively.
Take `COc1ccc2nc3ccccc3c(NCCCCCCN(C)CCCl)c2c1`: the TGI in [1] turned out to be 1.98 µM; in test [2], 1.75 µM; in [3] it was 1.44 µM; in [4], 1.75 µM; in test [6], 2.48 µM; in test [7], 2.26 µM. Moreover, the TGI in test [8] worked out at 2.01 µM; in test [9] it was 1.52 µM.
Regarding `CC1C=CC(=O)C(n2cc(F)c(=O)[nH]c2=O)O1` (configuration not stated), the TGI was 38.4 µM in test [2]; 29.5 µM in test [4]; 45.2 µM in test [5]; 46.8 µM in test [7]; 42.4 µM in test [8]; 47.9 µM in test [10]. The TGI in test [9] was determined as 35.9 µM.
Take `Cc1ccccc1CN1CC=c2ccccc2=N1`: the TGI in test [1], in test [2], in test [3], in test [4], in [5] and in [6] was more than 100 µM each time. Moreover, the TGI in [7], in [8] and in test [9] was more than 100 µM each time.
Regarding `c1ccc(CN(Cn2cccn2)Cn2cccn2)nc1`, the TGI in [2], in [3], in test [4], in test [6], in test [7] and in [8] was more than 100 µM in each case. The TGI in [10] and in [9] was more than 100 µM throughout.
Turning to `C=C(C)[C@@H]1CC[C@]2(C)[C@H](CC[C@@H]3[C@H]4[C@H]5OC[C@@]4(CCC5(C)C)CC[C@]32C)[C@@]1(C)CCCN`, the GI50 is 1.49 µM in test [1]; 1.63 µM in test [2]; 1.78 µM in [3]; 1.67 µM in test [4]; 1.8 µM in test [5]; 1.81 µM in test [6]. Also, the GI50 in test [7] was 1.83 µM; in test [8], 1.59 µM; in [9], 2.15 µM. Besides, the TGI in [1] turned out to be 2.91 µM; in test [2] it was 3.2 µM; in [3], 3.33 µM; in test [4], 3.15 µM; in [5], 3.36 µM; in test [6], 3.8 µM. For the same compound, the values for the TGI in test [7], in test [8] and in test [9] were 3.36 µM, 2.99 µM and 4.65 µM, respectively.
Regarding `NCc1nnn(Cc2ccccc2)c1N`, the TGI in [2], in test [3], in test [4], in [5], in test [6] and in [7] was more than 100 µM each time. In addition, the TGI in [8], in test [10] and in test [9] was more than 100 µM throughout.
As to `Nc1c(C(=O)Nc2ccccc2Cl)sc2nc3c(cc12)CCCCCC3`, the GI50 was 7.06 µM in [1]; 9.11 µM in test [2]; 3.67 µM in test [3]; 2.99 µM in test [4]; 3.44 µM in test [6]; 10.2 µM in [7]. Moreover, the GI50 in [8] was 1.59 µM; in [10], 2.73 µM; in test [9] it was 8.52 µM. Moreover, the TGI is more than 100 µM in test [1]; more than 100 µM in test [2]; more than 100 µM in test [3]; 21.3 µM in test [4]; 16.7 µM in test [6]; more than 100 µM in test [7]. Also, the TGI in test [8], in test [10] and in test [9] was more than 100 µM in each case.
For `COc1ccc2c(c1)CCC1C2CC[C@]2(C)/C(=N/OC(=O)Cc3ccccc3)CCC12` (some centres not stated), the GI50 is 19.8 µM in [1]; 20.6 µM in test [2]; 15 µM in [3]; 19.6 µM in test [4]; 14.7 µM in [5]; 18.7 µM in [6]. Besides, the results for the GI50 in test [7], in test [8] and in [9] were 24.1 µM, 18 µM and 21.7 µM, respectively. For the same compound, the TGI in [1] came out at 35.6 µM; in test [2], 43.6 µM; in test [3] it was 30.4 µM; in [4], 37.4 µM; in test [5] it was 29.8 µM; in [6], 34.4 µM. Besides, the figures for the TGI in test [7], in test [8] and in test [9] were 78.1 µM, 36.3 µM and 58.6 µM, respectively.
With `COc1ccc2c(c1)CC[C@@H]1[C@@H]2CC[C@]2(C)C(c3ccco3)=C(C=O)C[C@@H]12`, the GI50 in test [1] is 6.78 µM; in [2] it was 23.1 µM; in test [3], 3.35 µM; in [4] it was 4.13 µM; in [5] it was 27 µM; in test [6], 13.6 µM. The GI50 in [7] is 15.8 µM; in test [8], 4.19 µM; in test [9], 3.58 µM. For the same compound, the TGI in test [1] was 26.3 µM; in test [2], 95.2 µM; in [3], 12.2 µM; in test [4], 18.1 µM; in test [5], 78 µM; in test [6], more than 100 µM. Moreover, the TGI was more than 100 µM in test [7], 26.7 µM in [8] and more than 100 µM in [9].
Take `O=[N+]([O-])c1nccn1COCCF`: the TGI in test [2], in test [3], in test [4], in test [5], in [6] and in test [7] was more than 100 µM throughout. In addition, the TGI in test [8], in test [10] and in [9] was more than 100 µM each time.
With `CCOC(=O)c1sc(=S)c2c(C(=O)OCC)c(C(=O)OCC)sc2c1C(=O)OCC`, the GI50 in [1] is 13.1 µM; in test [2], 11.2 µM; in [3], 18.4 µM; in test [4], 12.7 µM; in test [5] it was 13.4 µM; in test [6], 16.4 µM. The GI50 in [7] was 21.3 µM; in test [8], 14.4 µM; in test [9], 27.6 µM. Also, the TGI in test [1] came to 28.7 µM; in test [2] it was 26.7 µM; in test [3], 44.5 µM; in [4], 26.5 µM; in test [5] it was 29.8 µM; in [6], 33.9 µM. For the same compound, the TGI is 54.7 µM in [7], 28.5 µM in [8] and more than 100 µM in test [9].
`Nc1ccc(/C=N/Nc2ccnc3c(N)cccc23)c2cccnc12`: the GI50 in test [1] was 1.81 µM; in [3], 1.7 µM; in test [4], 1.61 µM; in test [7] it was 1.87 µM; in test [8], 1.34 µM; in test [9] it was 1.78 µM. Also, the TGI in test [1] was 3.3 µM; in [3], 3.49 µM; in [4], 3.09 µM; in [7], 3.51 µM; in test [8], 2.9 µM; in test [9], 3.46 µM.
As for `CCC(C)C(NC(=O)C1CCCN1C(=O)C(NC(=O)C(C)N)C(C)C)C(N)=O` (configuration not stated), the GI50 in [2], in test [3], in test [4], in [5], in test [6] and in [7] was more than 100 µM throughout. The GI50 in [8], in test [10] and in test [9] was more than 100 µM each time. In addition, the TGI in [2], in [3], in test [4], in [5], in test [6] and in test [7] was more than 100 µM in each case. Moreover, the TGI in test [8], in [10] and in test [9] was more than 100 µM in each case.
With `C=C1C(=O)O[C@H]2[C@H]1CC/C(COC(=O)NCc1c[nH]c3ccc(Cl)cc13)=C\CC[C@@]1(C)O[C@@H]21`, the GI50 in test [1] was 1.96 µM; in test [2], 1.37 µM; in [3], 2.37 µM; in test [4] it was 1.66 µM; in test [5], 1.41 µM; in [6], 1.66 µM. Further, the GI50 in [7] is 1.69 µM; in test [8] it was 0.615 µM; in test [9], 1.19 µM. For the same compound, the TGI was found to be 3.69 µM in test [1]; 3 µM in [2]; 6.28 µM in [3]; 3.08 µM in [4]; 2.94 µM in [5]; 3.51 µM in [6]. For the same compound, the TGI in test [7] was 3.29 µM; in test [8] it was 1.95 µM; in test [9] it was 2.69 µM.
In the case of `O=c1c2ccccc2c2nc3ccccc3nc2n1C1CCCCC1`, the TGI in test [1], in [2], in test [3], in test [4], in test [5] and in test [6] was more than 100 µM each time. Also, the TGI in test [7], in test [8] and in [9] was more than 100 µM throughout.
In the case of `Nc1nc2nc[nH]c2c(=O)[nH]1`, the TGI in test [2], in test [3], in [4], in [5], in [6] and in [7] was more than 100 µM in each case. The TGI in test [8], in test [10] and in test [9] was more than 100 µM each time.
`O=C(Nc1nc2ncn(CC(COc3ccccc3)OC(=O)c3ccccc3)c2c(=O)[nH]1)c1ccccc1` (configuration not stated): the TGI in [2], in test [3], in test [4], in test [5], in [7] and in test [8] was more than 100 µM throughout. The TGI in test [10] was more than 100 µM.
On to `CN(C)CC1(C)CC/C(=C\c2ccccc2)C1=O` (configuration not stated), for which the TGI in test [1], in [2], in [3], in test [4], in [5] and in test [6] was more than 100 µM throughout. The TGI in test [7], in [8] and in test [9] was more than 100 µM throughout.
In the case of `CC12CCC[C@@](C)(C(=O)OC3OC(CO)C(O)C(O)C3O)[C@H]1CCC13CC4CC(OC4(CO)[C@H]1O)[C@@H]23` (some centres not stated), the TGI in test [1], in test [2], in [3], in [4], in [5] and in test [6] was more than 100 µM throughout. Further, the TGI in test [7] and in [8] was more than 100 µM throughout.
Take `O=C(/C=C\c1ccc(Cl)cc1Cl)c1cccs1`: the TGI in test [2] was 32.1 µM; in test [3], 38.8 µM; in test [6], 53.3 µM; in [7], 42.3 µM; in test [8], 34.4 µM; in [10], more than 100 µM. In test [9], this compound had a TGI of 30.7 µM.
Consider `O=C(Nc1c(O)[nH]c(=S)[nH]c1=O)c1ccc2ccccc2n1`, for which the TGI in test [2], in test [4], in [5], in [6], in test [7] and in [8] was more than 100 µM in each case. For the same compound, the TGI in test [10] and in [9] was more than 100 µM throughout.
For `NC(=S)N/N=C1/C(=O)N(c2ccc(Cl)cc2Cl)C(=O)C(=O)C1c1nc2ccccc2s1` (configuration not stated), the TGI in test [1], in test [2], in [3], in test [4], in test [5] and in test [6] was more than 100 µM each time. In addition, the TGI in [7], in test [8] and in test [9] was more than 100 µM in each case.
